Experimental data from ChEMBL document CHEMBL4507263, “Data for DCP probe BAY-474” (2021).

How the values were obtained:
Settings in all cases: Compound concentration 10.0 uM
[1] = target: 5-hydroxytryptamine receptor 2A (Homo sapiens) (UniProt P28223)
[2] = target: T1, D(4) dopamine receptor (Homo sapiens) (UniProt P21917)
T1 sequence (whole entry): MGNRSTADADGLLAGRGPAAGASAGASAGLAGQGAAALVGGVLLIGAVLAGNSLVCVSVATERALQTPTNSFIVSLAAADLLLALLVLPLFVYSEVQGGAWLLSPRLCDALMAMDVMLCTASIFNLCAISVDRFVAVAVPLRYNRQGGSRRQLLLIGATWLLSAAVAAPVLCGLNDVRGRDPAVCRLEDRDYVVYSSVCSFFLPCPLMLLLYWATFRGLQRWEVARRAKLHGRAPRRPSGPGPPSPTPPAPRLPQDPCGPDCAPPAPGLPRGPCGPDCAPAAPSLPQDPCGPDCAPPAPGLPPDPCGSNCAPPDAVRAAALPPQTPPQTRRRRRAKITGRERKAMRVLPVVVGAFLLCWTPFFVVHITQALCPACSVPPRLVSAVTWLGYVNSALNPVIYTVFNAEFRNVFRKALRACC

[3] = target: Mu-type opioid receptor (Homo sapiens) (UniProt P35372)
D(1B) dopamine receptor = D(1B) dopamine receptor (Homo sapiens, UniProt P21918)
[4] = target: Alpha-2C adrenergic receptor (Homo sapiens) (UniProt P18825)
[5] = target: D(1A) dopamine receptor (Homo sapiens) (UniProt P21728)
[6] = target: 5-hydroxytryptamine receptor 3A (Homo sapiens) (UniProt P46098)
[7] = target: Alpha-2B adrenergic receptor (Homo sapiens) (UniProt P18089)
[8] = target: Muscarinic acetylcholine receptor M3 (Homo sapiens) (UniProt P20309)
[9] = target: D(2) dopamine receptor (Homo sapiens) (UniProt P14416)
[10] = target: Histamine H2 receptor (Homo sapiens) (UniProt P25021)
[11] = target: Sigma non-opioid intracellular receptor 1 (Homo sapiens) (UniProt Q99720)
[12] = target: 5-hydroxytryptamine receptor 2C (Homo sapiens) (UniProt P28335)
[13] = target: Alpha-1B adrenergic receptor (Homo sapiens) (UniProt P35368)
[14] = target: Muscarinic acetylcholine receptor M4 (Homo sapiens) (UniProt P08173)
[15] = target: T2, Alpha-1D adrenergic receptor (Homo sapiens) (UniProt P25100)
T2 sequence (whole entry): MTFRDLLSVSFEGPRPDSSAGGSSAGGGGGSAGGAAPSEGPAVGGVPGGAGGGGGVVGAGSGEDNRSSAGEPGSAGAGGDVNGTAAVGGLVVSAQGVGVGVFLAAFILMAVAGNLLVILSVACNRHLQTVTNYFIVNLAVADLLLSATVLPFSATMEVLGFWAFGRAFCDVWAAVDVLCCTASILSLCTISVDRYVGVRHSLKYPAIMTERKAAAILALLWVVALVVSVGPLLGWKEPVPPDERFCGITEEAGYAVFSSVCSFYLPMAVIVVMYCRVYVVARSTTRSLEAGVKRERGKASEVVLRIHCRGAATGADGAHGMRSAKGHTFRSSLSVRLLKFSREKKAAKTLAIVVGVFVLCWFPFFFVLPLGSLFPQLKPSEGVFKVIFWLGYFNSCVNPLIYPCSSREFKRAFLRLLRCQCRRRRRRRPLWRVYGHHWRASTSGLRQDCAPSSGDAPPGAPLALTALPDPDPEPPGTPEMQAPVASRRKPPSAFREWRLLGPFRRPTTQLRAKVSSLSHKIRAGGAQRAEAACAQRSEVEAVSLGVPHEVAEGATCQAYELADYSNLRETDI

[16] = target: 5-hydroxytryptamine receptor 6 (Homo sapiens, UniProt P50406)
[17] = target: 5-hydroxytryptamine receptor 1E (Homo sapiens) (UniProt P28566)
[18] = target: 5-hydroxytryptamine receptor 7 (Homo sapiens) (UniProt P34969)
[19] = target: T3, Muscarinic acetylcholine receptor M2 (Homo sapiens) (UniProt P08172)
T3 sequence (whole entry): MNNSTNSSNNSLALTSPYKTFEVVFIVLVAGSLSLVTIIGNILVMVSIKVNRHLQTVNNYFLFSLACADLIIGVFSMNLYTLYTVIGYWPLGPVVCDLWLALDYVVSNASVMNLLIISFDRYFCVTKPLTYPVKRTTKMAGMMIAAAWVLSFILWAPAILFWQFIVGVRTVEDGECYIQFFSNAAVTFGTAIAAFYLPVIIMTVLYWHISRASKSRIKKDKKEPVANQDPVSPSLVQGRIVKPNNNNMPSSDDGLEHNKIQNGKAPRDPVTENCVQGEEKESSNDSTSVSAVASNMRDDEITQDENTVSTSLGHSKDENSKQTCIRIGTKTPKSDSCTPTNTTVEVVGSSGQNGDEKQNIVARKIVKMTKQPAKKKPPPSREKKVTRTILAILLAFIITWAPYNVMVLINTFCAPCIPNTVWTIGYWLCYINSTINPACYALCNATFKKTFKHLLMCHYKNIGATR

[20] = target: 5-hydroxytryptamine receptor 1B (Homo sapiens) (UniProt P28222)
[21] = target: Delta-type opioid receptor (Homo sapiens) (UniProt P41143)
[22] = target: Beta-3 adrenergic receptor (Homo sapiens) (UniProt P13945)
[23] = target: Sigma intracellular receptor 2 (Homo sapiens) (UniProt Q5BJF2)
[24] = target: Beta-2 adrenergic receptor (Homo sapiens) (UniProt P07550)
Beta-2 adrenergic receptor (Homo sapiens), sequence (P07550 whole entry, looked up): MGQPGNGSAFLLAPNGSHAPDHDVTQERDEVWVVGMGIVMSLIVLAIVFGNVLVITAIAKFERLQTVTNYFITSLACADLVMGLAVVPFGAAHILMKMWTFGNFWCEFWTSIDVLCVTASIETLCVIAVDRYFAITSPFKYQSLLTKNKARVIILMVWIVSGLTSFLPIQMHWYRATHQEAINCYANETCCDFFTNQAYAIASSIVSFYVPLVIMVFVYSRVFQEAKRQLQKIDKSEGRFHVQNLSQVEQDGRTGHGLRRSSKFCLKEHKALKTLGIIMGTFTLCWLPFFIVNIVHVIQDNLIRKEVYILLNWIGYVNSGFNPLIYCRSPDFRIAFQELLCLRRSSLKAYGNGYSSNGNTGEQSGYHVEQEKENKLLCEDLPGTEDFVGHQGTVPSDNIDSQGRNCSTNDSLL

Sigma non-opioid intracellular receptor 1 (Homo sapiens), sequence (Q99720 whole entry): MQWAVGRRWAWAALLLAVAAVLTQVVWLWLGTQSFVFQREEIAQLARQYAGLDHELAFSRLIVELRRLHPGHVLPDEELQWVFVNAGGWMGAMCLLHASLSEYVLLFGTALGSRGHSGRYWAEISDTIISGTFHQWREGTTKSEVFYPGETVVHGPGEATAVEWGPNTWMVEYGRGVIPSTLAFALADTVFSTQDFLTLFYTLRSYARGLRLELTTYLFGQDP
Sigma intracellular receptor 2 (Homo sapiens), sequence (Q5BJF2 whole entry): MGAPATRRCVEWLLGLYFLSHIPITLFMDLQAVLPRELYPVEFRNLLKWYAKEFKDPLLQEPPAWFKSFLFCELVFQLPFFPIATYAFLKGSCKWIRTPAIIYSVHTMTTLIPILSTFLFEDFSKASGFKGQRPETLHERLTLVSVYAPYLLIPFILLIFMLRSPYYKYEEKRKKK
5-hydroxytryptamine receptor 1E (Homo sapiens), sequence (P28566 whole entry): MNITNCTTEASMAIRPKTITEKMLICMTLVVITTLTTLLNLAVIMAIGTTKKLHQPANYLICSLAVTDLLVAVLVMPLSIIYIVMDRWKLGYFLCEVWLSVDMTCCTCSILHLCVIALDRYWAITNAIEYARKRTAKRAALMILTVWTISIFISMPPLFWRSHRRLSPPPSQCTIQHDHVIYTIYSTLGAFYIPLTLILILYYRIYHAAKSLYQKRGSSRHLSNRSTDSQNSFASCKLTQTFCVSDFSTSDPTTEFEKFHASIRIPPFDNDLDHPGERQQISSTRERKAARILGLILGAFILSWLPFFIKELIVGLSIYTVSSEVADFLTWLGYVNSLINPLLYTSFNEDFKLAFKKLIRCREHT
Alpha-2C adrenergic receptor (Homo sapiens), sequence (P18825 whole entry): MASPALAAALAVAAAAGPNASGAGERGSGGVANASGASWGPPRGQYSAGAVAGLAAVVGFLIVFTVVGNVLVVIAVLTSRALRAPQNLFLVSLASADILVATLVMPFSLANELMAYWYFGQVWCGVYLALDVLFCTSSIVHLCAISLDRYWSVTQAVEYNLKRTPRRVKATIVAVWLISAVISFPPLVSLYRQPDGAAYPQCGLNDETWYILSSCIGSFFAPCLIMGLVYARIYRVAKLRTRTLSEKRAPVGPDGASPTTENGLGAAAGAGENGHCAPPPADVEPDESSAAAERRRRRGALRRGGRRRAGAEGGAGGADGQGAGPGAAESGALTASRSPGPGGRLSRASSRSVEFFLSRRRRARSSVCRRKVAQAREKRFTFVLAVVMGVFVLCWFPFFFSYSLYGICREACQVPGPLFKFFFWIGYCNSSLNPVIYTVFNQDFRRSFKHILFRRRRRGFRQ
Mu-type opioid receptor (Homo sapiens), sequence (P35372 whole entry): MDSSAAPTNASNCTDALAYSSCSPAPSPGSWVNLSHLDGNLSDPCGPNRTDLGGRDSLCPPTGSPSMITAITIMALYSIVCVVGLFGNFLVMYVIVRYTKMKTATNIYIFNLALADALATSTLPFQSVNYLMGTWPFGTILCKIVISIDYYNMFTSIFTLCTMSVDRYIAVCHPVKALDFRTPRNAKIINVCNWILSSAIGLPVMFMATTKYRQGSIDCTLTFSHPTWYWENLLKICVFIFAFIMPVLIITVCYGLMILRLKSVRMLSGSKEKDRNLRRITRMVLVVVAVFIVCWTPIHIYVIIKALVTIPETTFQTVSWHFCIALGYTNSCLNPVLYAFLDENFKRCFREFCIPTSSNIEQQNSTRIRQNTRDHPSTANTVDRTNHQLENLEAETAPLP
5-hydroxytryptamine receptor 6, sequence (P50406 whole entry): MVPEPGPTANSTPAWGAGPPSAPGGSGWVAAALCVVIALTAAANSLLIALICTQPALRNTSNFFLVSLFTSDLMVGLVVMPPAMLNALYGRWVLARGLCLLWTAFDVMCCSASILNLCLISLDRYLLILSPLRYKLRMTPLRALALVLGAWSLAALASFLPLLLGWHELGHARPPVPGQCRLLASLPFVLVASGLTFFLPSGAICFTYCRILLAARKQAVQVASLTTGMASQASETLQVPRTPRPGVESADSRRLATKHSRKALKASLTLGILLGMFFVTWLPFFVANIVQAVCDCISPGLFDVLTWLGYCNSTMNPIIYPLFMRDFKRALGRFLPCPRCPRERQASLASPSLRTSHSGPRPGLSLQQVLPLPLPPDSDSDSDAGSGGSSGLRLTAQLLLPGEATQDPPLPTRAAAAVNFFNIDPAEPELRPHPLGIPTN
Beta-3 adrenergic receptor (Homo sapiens), sequence (P13945 whole entry, looked up): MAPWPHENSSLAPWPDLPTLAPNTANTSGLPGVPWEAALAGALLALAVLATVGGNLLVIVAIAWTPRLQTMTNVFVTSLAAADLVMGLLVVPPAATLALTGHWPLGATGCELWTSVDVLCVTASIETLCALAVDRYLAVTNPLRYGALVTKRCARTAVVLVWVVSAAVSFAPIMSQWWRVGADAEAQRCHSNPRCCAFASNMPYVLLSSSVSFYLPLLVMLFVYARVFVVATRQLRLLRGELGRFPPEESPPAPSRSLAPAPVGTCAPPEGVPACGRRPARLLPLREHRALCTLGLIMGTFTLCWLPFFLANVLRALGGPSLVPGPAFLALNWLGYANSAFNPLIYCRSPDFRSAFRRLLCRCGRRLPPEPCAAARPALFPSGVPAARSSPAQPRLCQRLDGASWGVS
5-hydroxytryptamine receptor 1B (Homo sapiens), sequence (P28222 whole entry): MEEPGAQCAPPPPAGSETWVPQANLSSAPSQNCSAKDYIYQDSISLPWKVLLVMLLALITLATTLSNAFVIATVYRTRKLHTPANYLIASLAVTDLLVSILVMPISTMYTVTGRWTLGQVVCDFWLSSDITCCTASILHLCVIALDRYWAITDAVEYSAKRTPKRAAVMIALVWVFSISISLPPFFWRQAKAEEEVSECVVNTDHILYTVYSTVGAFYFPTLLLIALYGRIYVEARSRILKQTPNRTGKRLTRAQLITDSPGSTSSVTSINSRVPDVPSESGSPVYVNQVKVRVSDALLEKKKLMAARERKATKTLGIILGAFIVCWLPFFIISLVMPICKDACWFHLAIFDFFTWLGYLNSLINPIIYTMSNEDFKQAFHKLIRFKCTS
D(1A) dopamine receptor (Homo sapiens), sequence (P21728 whole entry): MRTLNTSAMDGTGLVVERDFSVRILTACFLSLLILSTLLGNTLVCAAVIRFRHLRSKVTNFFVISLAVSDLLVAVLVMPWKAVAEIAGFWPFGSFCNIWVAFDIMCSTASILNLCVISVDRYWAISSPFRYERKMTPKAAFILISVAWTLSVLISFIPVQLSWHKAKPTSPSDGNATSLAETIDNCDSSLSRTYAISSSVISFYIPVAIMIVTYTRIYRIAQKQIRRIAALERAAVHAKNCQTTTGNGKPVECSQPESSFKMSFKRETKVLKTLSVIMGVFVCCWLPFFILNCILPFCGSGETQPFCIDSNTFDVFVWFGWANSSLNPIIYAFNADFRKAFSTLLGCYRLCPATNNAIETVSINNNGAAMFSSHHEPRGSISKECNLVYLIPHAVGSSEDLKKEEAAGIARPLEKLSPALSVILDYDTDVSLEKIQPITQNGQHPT
5-hydroxytryptamine receptor 3A (Homo sapiens), sequence (P46098 whole entry): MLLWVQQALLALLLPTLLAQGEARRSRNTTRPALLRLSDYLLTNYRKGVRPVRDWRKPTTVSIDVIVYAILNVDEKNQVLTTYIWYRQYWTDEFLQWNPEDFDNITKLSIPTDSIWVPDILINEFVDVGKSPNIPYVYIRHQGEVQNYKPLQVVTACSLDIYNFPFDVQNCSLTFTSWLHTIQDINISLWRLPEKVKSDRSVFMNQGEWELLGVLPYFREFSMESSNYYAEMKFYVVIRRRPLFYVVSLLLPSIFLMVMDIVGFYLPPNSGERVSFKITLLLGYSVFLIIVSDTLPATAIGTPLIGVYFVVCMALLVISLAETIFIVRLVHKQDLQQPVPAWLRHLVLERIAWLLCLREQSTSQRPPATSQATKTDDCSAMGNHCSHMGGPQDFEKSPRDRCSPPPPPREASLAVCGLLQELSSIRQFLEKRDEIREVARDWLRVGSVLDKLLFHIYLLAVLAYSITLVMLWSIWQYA
Alpha-1B adrenergic receptor (Homo sapiens), sequence (P35368 whole entry): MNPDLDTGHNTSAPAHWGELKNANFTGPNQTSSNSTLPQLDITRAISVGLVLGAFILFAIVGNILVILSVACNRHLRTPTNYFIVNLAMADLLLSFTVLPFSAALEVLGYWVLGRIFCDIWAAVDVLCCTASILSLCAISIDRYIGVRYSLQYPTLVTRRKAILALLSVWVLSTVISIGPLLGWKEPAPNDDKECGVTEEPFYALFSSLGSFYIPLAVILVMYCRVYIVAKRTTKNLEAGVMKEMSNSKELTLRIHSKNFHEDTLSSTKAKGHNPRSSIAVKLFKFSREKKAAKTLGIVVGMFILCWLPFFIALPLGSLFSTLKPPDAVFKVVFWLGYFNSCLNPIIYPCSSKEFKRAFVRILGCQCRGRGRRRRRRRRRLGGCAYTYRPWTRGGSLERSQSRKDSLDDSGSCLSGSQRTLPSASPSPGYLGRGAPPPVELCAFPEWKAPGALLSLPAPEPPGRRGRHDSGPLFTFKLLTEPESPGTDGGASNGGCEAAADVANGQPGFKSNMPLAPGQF

Compound	inhibition [1] [%]	inhibition [2] [%]	inhibition [3] [%]	inhibition (D(1B) dopamine receptor) [%]	inhibition [4] [%]	inhibition [5] [%]	inhibition [6] [%]	inhibition [7] [%]	inhibition [8] [%]	inhibition [9] [%]	inhibition [10] [%]	inhibition [11] [%]	inhibition [12] [%]	inhibition [13] [%]	inhibition [14] [%]	inhibition [15] [%]	inhibition [16] [%]	inhibition [17] [%]	inhibition [18] [%]	inhibition [19] [%]	other results
CC1=C(C#N)[C@@H](c2ccc3[nH]nc(C)c3c2)C(C#N)=C(c2ccc(Cl)cc2)N1 [BAY-827]	5.76	5.34	-0.0207	58.1	-1.57	6.7	2.6	4.71	8.81	10.6	14.1	14.6	71.8	21.7	13	7.74	55.7	-3.84	8.19	18.8	inhibition [20]: 17.2%; inhibition [21]: 33.4%; inhibition [22]: 24.3%; inhibition [23]: 23.4%; inhibition [24]: -0.813%
CC1=C(C#N)C(c2ccc3[nH]nc(C)c3c2)C(C#N)=C(C)N1 [BAY-474]	8.75	24	2.64	5.4	-4.65	6.92	33	8.04	-1.54	-7.07	12.6	-9.08	22.4	1.79	5.33	2.5	20.7	8.21	-0.97	-8.64	inhibition [20]: 0.48%; inhibition [21]: 16.9%; inhibition [22]: 21.1%; inhibition [23]: 23.9%; inhibition [24]: 20.2%
